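Compound exposure: 48 hours, 5 concentrations, 96-well plates. GI50 marks 50% less growth.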 The source made the active and inactive calls. No stated cut-off is given here; in the data, active = GI50 up to about 1.1 µM and inactive = higher.
Legend:
Assay in all cases: DTP human tumour cell line panel, 48 h
NCI-H522 = tested on: NCI-H522
KM12 = tested on: KM12
SK-MEL-5 = tested on: SK-MEL-5
RXF 393 = tested on: RXF 393
UO-31 = tested on: UO-31
ACHN = tested on: ACHN
SNB-19 = tested on: SNB-19
TK-10 = tested on: TK-10
SK-MEL-2 = tested on: SK-MEL-2
HT-29 = tested on: HT-29
SW-620 = tested on: SW-620
COLO 205 = tested on: COLO 205
UACC-62 = tested on: UACC-62
SF-539 = tested on: SF-539
SNB-75 = tested on: SNB-75
Malme-3M = tested on: Malme-3M
SN12C = tested on: SN12C
OVCAR-8 = tested on: OVCAR-8
MOLT-4 = tested on: MOLT-4
HOP-62 = tested on: HOP-62

Measured: GI50

C=CC(=O)NC(O)(C(=O)OCC)C(F)(F)F (stereo not given)
inactive: NCI-H522 > 100 µM | KM12 > 100 µM | SK-MEL-5 > 100 µM | RXF 393 > 100 µM | UO-31 > 100 µM | ACHN > 100 µM | SNB-19 > 100 µM | TK-10 > 100 µM | SK-MEL-2 > 100 µM | HT-29 > 100 µM | SW-620 > 100 µM | COLO 205 > 100 µM | UACC-62 > 100 µM | SF-539 > 100 µM | SNB-75 > 100 µM | Malme-3M > 100 µM | SN12C > 100 µM | OVCAR-8 > 100 µM | MOLT-4 > 100 µM | HOP-62 > 100 µM

Cc1cc2c(ccc[n+]2[O-])[n+]([O-])c1
inactive: NCI-H522 > 100 µM | KM12 > 100 µM | SK-MEL-5 > 100 µM | RXF 393 4.74 µM | UO-31 > 100 µM | ACHN > 100 µM | SNB-19 > 100 µM | TK-10 > 100 µM | SK-MEL-2 > 100 µM | HT-29 > 100 µM | SW-620 > 100 µM | COLO 205 > 100 µM | UACC-62 > 100 µM | SF-539 > 100 µM | SNB-75 > 100 µM | Malme-3M > 100 µM | SN12C > 100 µM | OVCAR-8 > 100 µM | MOLT-4 > 100 µM | HOP-62 > 100 µM
